Results reported in patent publication US7902373B2 (Pfizer Inc, priority 2006, dated 2011).

These compounds were tested against human recombinant H-PGDS (Homo sapiens, UniProt O60760) (assay: Fluorescence intensity h-PGDS TBA enzyme assay). Settings: Examples up to 622 (and 3a, 3b).
Format: biochemical

human recombinant H-PGDS, sequence (O60760 whole entry): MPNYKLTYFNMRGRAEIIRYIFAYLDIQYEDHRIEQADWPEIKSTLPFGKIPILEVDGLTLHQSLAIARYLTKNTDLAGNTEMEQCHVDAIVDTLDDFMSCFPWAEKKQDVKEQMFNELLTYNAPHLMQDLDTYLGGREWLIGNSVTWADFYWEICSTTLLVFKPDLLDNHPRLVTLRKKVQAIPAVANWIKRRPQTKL

| SMILES | IC50 [nM] |
| --- | --- |
| COc1ccc(-c2c(CN3CCC(NC(=O)c4ccc(-c5cccc(F)c5)nc4)CC3)cnn2C)cc1 [Example 499, 6-(3-Fluorophenyl)-N-(1-{[5-(4-methoxyphenyl)-1-methyl-1H-pyrazol-4-yl]methyl}piperidin-4-yl)nicotinamide] | 1.64 |
| O=C(NC1CCN(Cc2ccc3cc[nH]c3c2)CC1)c1ccc(-c2cccc(F)c2)nc1 [Example 502, 6-(3-Fluorophenyl)-N-[1-(1H-indol-6-ylmethyl)piperidin-4-yl]nicotinamide] | 1.99 |
| Cc1ccc(CN2CCC(NC(=O)c3ccc(-c4cccc(F)c4)nc3)CC2)c(F)c1 [Example 503, N-[1-(2-Fluoro-4-methylbenzyl)piperidin-4-yl]-6-(3-fluorophenyl)nicotinamide] | 2.7 |
| Cc1cc(C)n2nc(CN3CCC(NC(=O)c4ccc(-c5cccc(F)c5)nc4)CC3)nc2n1 [Example 504, N-{1-[(5,7-Dimethyl[1,2,4]triazolo[1,5-a]pyrimidin-2-yl)methyl]piperidin-4-yl}-6-(3-fluorophenyl)nicotinamide] | 2.84 |
| COc1cccc(-c2c(CN3CCC(NC(=O)c4ccc(-c5cccc(F)c5)nc4)CC3)cnn2C)c1 [Example 506, 6-(3-Fluorophenyl)-N-(1-{[5-(3-methoxyphenyl)-1-methyl-1H-pyrazol-4-yl]methyl}piperidin-4-yl)nicotinamide] | 1.25 |
| Cc1ccc(-c2c(CN3CCC(NC(=O)c4ccc(-c5cccc(F)c5)nc4)CC3)cnn2C)cc1 [Example 510, 6-(3-Fluorophenyl)-N-(1-{[1-methyl-5-(4-methylphenyl)-1H-pyrazol-4-yl]methyl}piperidin-4-yl)nicotinamide] | 2.74 |
| CC1(CN2CCC(NC(=O)c3ccc(-c4cccc(F)c4)nc3)CC2)CCC1 [Example 511, 6-(3-Fluorophenyl)-N-{1-[(1-methylcyclobutyl)methyl]piperidin-4-yl}nicotinamide] | 1.09 |
| COc1ccc(C)cc1CN1CCC(NC(=O)c2ccc(-c3cccc(F)c3)nc2)CC1 [Example 515, 6-(3-Fluorophenyl)-N-[1-(2-methoxy-5-methylbenzyl)piperidin-4-yl]nicotinamide] | 1.1 |
| CCCn1cc(CN2CCC(NC(=O)c3ccc(-c4cccc(F)c4)nc3)CC2)cn1 [Example 516, 6-(3-Fluorophenyl)-N-{1-[(1-propyl-1H-pyrazol-4-yl)methyl]piperidin-4-yl}nicotinamide] | 2.2 |
| O=C(NC1CCN(Cc2ccc3occc3c2)CC1)c1ccc(-c2cccc(F)c2)nc1 [Example 520, N-[1-(1-Benzofuran-5-ylmethyl)piperidin-4-yl]-6-(3-fluorophenyl)nicotinamide] | 1.93 |
| O=C(NC1CCN(C(=O)OCc2ccccc2)CC1)c1ccc(-c2cccc(F)c2)nc1 [Example 521, Benzyl 4-({[6-(3-fluorophenyl)pyridin-3-yl]carbonyl}amino)piperidine-1-carboxylate] | 556 |
| CC(C)(C)OC(=O)N1[C@@H]2CC[C@H]1CC(NC(=O)c1ccc(-c3cccc(F)c3)nc1)C2 (stereo partly drawn) [Example 522, tert-Butyl (1R,5S)-3-({[6-(3-fluorophenyl)pyridin-3-yl]carbonyl}amino)-8-azabicyclo[3.2.1]octane-8-carboxylate] | 6.54 |
| CC(C)(C)OC(=O)N1CCC(NC(=O)c2ccc(-c3cccc(F)c3)nc2)C(c2ccc(F)cc2)C1 (stereo not drawn) [Example 523, tert-Butyl 3-(4-fluorophenyl)-4-({[6-(3-fluorophenyl)pyridin-3-yl]carbonyl}amino)piperidine-1-carboxylate] | 217 |
| O=CN1CCC(NC(=O)c2ccc(-c3cccc(F)c3)nc2)CC1 [Example 524, 6-(3-Fluorophenyl)-N-(1-formylpiperidin-4-yl)nicotinamide] | 1.76 |
| O=C(NC1CCNCC1c1ccc(F)cc1)c1ccc(-c2cccc(F)c2)nc1 (stereo not drawn) [Example 525, 6-(3-Fluorophenyl)-N-[3-(4-fluorophenyl)piperidin-4-yl]nicotinamide] | 14.8 |
| CC(=O)N1CCC(NC(=O)c2ccc(-c3cccc(F)c3)nc2)C(c2ccc(F)cc2)C1 (stereo not drawn) [Example 526] | 76.3 |
| CC(CC1CC1)N1CCC(NC(=O)c2ccc(-c3cccc(F)c3)nc2)CC1 (stereo not drawn) [Example 527, N-[1-(2-Cyclopropyl-1-methylethyl)piperidin-4-yl]-6-(3-fluorophenyl)nicotinamide] | 2.84 |
| COc1ccc2c(c1)CCC2N1CCC(NC(=O)c2ccc(-c3cccc(F)c3)nc2)CC1 (stereo not drawn) [Example 528, 6-(3-Fluorophenyl)-N-[1-(5-methoxy-2,3-dihydro-1H-inden-1-yl)piperidin-4-yl]nicotinamide] | 2.49 |
| CC(CC1(C)CC1)N1CCC(NC(=O)c2ccc(-c3cccc(F)c3)nc2)CC1 (stereo not drawn) [Example 529, 6-(3-Fluorophenyl)-N-{1-[1-methyl-2-(1-methylcyclopropyl)ethyl]piperidin-4-yl}nicotinamide] | 2.5 |
| COc1ccccc1C(C)N1CCC(NC(=O)c2ccc(-c3cccc(F)c3)nc2)CC1 (stereo not drawn) [Example 530, 6-(3-Fluorophenyl)-N-{1-[1-(2-methoxyphenyl)ethyl]piperidin-4-yl}nicotinamide] | 2.71 |
| CC(c1ccccc1)N1CCC(NC(=O)c2ccc(-c3cccc(F)c3)nc2)CC1 (stereo not drawn) [Example 531, 6-(3-Fluorophenyl)-N-[1-(1-phenylethyl)piperidin-4-yl]nicotinamide] | 1.15 |
| COc1cccc(C(C)N2CCC(NC(=O)c3ccc(-c4cccc(F)c4)nc3)CC2)c1 (stereo not drawn) [Example 532, 6-(3-Fluorophenyl)-N-{1-[1-(3-methoxyphenyl)ethyl]piperidin-4-yl}nicotinamide] | 1.3 |
| COc1cccc(OC)c1C(C)N1CCC(NC(=O)c2ccc(-c3cccc(F)c3)nc2)CC1 (stereo not drawn) [Example 533, N-{1-[1-(2,6-Dimethoxyphenyl)ethyl]piperidin-4-yl}-6-(3-fluorophenyl)nicotinamide] | 2.42 |

Second part, the compound after the results:

| IC50 [nM] | SMILES |
| --- | --- |
| 0.409 | Cn1nncc1CN1CCC(NC(=O)c2ccc(-c3cccc(F)c3)nc2)CC1 [Example 495, 6-(3-Fluorophenyl)-N-{1-[(1-methyl-1H-1,2,3-triazol-5-yl)methyl]piperidin-4-yl}nicotinamide] |
| 0.569 | COc1cc(CN2CCC(NC(=O)c3ccc(-c4cccc(F)c4)nc3)CC2)ccc1C [Example 496, 6-(3-Fluorophenyl)-N-[1-(3-methoxy-4-methylbenzyl)piperidin-4-yl]nicotinamide] |
| 1.06 | O=C1COc2ccc(CN3CCC(NC(=O)c4ccc(-c5cccc(F)c5)nc4)CC3)cc2N1 [Example 497, 6-(3-Fluorophenyl)-N-{1-[(3-oxo-3,4-dihydro-2H-14-benzoxazin-6-yl)methyl]piperidin-4-yl}nicotinamide] |
| 0.3 | Cn1ncc(CN2CCC(NC(=O)c3ccc(-c4cccc(F)c4)nc3)CC2)c1-c1ccccc1 [Example 498, 6-(3-Fluorophenyl)-N-{1-[(1-methyl-5-phenyl-1H-pyrazol-4-yl)methyl]piperidin-4-yl}nicotinamide] |
| 0.633 | Cn1ncc(CN2CCC(NC(=O)c3ccc(-c4cccc(F)c4)nc3)CC2)c1-c1ccc(F)cc1 [Example 500, 6-(3-Fluorophenyl)-N-(1-{[5-(4-fluorophenyl)-1-methyl-1H-pyrazol-4-yl]methyl}piperidin-4-yl)nicotinamide] |
| 0.432 | CS(=O)(=O)Nc1cccc(CN2CCC(NC(=O)c3ccc(-c4cccc(F)c4)nc3)CC2)c1 [Example 501, 6-(3-Fluorophenyl)-N-(1-{3-[(methylsulfonyl)amino]benzyl}piperidin-4-yl)nicotinamide] |
| 0.418 | CC1(CN2CCC(NC(=O)c3ccc(-c4cccc(F)c4)nc3)CC2)CC1 [Example 505, 6-(3-Fluorophenyl)-N-{1-[(1-methylcyclopropyl)methyl]piperidin-4-yl}nicotinamide] |
| 0.551 | Cn1ncc(CN2CCC(NC(=O)c3ccc(-c4cccc(F)c4)nc3)CC2)c1-c1cccc(F)c1 [Example 507, 6-(3-Fluorophenyl)-N-(1-{[5-(3-fluorophenyl)-1-methyl-1H-pyrazol-4-yl]methyl}piperidin-4-yl)nicotinamide] |
| 0.551 | COc1ccccc1-c1c(CN2CCC(NC(=O)c3ccc(-c4cccc(F)c4)nc3)CC2)cnn1C [Example 508, 6-(3-Fluorophenyl)-N-(1-{[5-(2-methoxyphenyl)-1-methyl-1H-pyrazol-4-yl]methyl}piperidin-4-yl)nicotinamide] |
| 0.665 | Cc1ccccc1-c1c(CN2CCC(NC(=O)c3ccc(-c4cccc(F)c4)nc3)CC2)cnn1C [Example 509, 6-(3-Fluorophenyl)-N-(1-{[1-methyl-5-(2-methylphenyl)-1H-pyrazol-4-yl]methyl}piperidin-4-yl)nicotinamide] |
| 0.391 | O=C(NC1CCN(Cc2n[nH]c3ccc(Cl)cc23)CC1)c1ccc(-c2cccc(F)c2)nc1 [Example 512, N-{1-[(5-Chloro-1H-indazol-3-yl)methyl]piperidin-4-yl}-6-(3-fluorophenyl)nicotinamide] |
| 0.363 | O=C(NC1CCN(Cc2n[nH]c3ccccc23)CC1)c1ccc(-c2cccc(F)c2)nc1 [Example 513, 6-(3-Fluorophenyl)-N-[1-(1H-indazol-3-ylmethyl)piperidin-4-yl]nicotinamide] |
| 0.348 | O=C1COc2ncc(CN3CCC(NC(=O)c4ccc(-c5cccc(F)c5)nc4)CC3)cc2N1 [Example 514, 6-(3-Fluorophenyl)-N-{1-[(2-oxo-2,3-dihydro-1H-pyrido[2,3-b][1,4]oxazin-7-yl)methyl]piperidin-4-yl}nicotinamide] |
| 0.41 | CCCn1nccc1CN1CCC(NC(=O)c2ccc(-c3cccc(F)c3)nc2)CC1 [Example 517, 6-(3-Fluorophenyl)-N-{1-[(1-propyl-1H-pyrazol-5-yl)methyl]piperidin-4-yl}nicotinamide] |
| 0.96 | O=C(NC1CCN(Cc2coc3ccccc23)CC1)c1ccc(-c2cccc(F)c2)nc1 [Example 518, N-[1-(1-Benzofuran-3-ylmethyl)piperidin-4-yl]-6-(3-fluorophenyl)nicotinamide] |
| 0.445 | Cn1ncc(Cl)c1CN1CCC(NC(=O)c2ccc(-c3cccc(F)c3)nc2)CC1 [Example 519, N-{1-[(4-Chloro-1-methyl-1H-pyrazol-5-yl)methyl]piperidin-4-yl}-6-(3-fluorophenyl)nicotinamide] |
